Measurements: article PMC5405701 (ChemMedChem, 2017)
Where “and” joins values, the source holds several entries; their conditions need not be identical. Equal entries are not always repeated. Where two headings read alike, the source gives them in different places.

What was measured:
ERα = ERα (Homo sapiens, UniProt P03372); assay: cell-based; assay type: cell-based; conditions: for Agonist Mode ERα Eff (%E2): maximal response as percentage of response to 10^−8 M E2, HEK293T; for transcriptional activity profile on ERα: reporter gene assay
Sequence of ERα (P03372 whole entry): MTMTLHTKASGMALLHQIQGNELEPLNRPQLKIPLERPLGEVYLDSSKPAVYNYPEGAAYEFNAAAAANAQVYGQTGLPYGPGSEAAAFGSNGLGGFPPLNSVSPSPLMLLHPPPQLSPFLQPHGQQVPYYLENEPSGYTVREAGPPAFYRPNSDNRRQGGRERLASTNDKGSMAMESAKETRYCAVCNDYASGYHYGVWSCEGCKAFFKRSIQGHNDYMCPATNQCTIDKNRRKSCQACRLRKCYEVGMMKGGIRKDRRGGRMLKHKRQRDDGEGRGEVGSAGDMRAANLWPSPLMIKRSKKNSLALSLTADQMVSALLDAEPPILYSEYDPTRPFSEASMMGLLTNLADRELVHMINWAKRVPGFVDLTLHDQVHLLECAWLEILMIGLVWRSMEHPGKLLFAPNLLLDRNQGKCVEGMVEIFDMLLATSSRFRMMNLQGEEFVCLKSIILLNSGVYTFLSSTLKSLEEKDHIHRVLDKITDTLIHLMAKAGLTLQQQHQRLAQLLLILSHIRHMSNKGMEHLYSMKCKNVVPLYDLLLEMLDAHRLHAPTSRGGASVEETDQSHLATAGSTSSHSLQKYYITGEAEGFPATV

ERβ = ERβ (Homo sapiens, UniProt Q92731); assay: cell-based; assay type: cell-based; conditions: for Emax: HEK-293T, 24 h, read-out: Agonist Mode ERβ Eff (%E2); for transcriptional activity profile on ERβ: reporter gene assay, HEK293T
Sequence of ERβ (Q92731 whole entry, the tested form may be a part): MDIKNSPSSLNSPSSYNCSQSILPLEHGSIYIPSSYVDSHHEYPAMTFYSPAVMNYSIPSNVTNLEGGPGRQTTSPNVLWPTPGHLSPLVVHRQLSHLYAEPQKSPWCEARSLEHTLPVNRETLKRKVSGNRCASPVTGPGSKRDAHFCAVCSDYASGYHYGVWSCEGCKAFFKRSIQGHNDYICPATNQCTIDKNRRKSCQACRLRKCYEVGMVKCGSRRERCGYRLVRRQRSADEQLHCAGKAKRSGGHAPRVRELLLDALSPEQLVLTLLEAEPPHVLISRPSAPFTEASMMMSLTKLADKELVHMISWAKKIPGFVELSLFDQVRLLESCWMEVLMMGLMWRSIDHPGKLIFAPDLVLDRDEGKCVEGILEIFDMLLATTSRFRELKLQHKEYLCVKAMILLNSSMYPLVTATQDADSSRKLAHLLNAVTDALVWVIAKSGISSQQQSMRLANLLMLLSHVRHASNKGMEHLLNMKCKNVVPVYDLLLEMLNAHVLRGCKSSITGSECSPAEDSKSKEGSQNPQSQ

[1] = biological target: human ERβ ligand binding domain (LBD) (Homo sapiens, UniProt Q92731); assay: competitive fluorometric; conditions: for β/α: ratio of RBA ERβ to RBA ERα
Sequence of human ERβ ligand binding domain (LBD) (Q92731 264-498 limits assumed): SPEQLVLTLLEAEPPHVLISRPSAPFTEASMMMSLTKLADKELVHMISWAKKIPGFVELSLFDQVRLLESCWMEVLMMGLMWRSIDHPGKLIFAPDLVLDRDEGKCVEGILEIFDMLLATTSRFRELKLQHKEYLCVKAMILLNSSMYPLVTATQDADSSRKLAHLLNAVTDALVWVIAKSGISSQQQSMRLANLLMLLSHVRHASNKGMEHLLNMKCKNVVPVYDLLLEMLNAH

[2] = system: MCF-7 breast cancer cells; assay: antiproliferative activity, MTT assay, MCF-7; conditions: Homo sapiens, MCF7, 72 h, read-out: MCF-7 Inhibition (%)
VERO cells = assay: toxicity to normal cells, MTT assay, VERO
[3] = biological target: T1, human ERα ligand binding domain (LBD) (Homo sapiens, UniProt P03372); assay: competitive fluorometric; conditions: relative to parent 2a (compared to 2a and 4a)
T1 sequence (P03372 311-547 limits assumed): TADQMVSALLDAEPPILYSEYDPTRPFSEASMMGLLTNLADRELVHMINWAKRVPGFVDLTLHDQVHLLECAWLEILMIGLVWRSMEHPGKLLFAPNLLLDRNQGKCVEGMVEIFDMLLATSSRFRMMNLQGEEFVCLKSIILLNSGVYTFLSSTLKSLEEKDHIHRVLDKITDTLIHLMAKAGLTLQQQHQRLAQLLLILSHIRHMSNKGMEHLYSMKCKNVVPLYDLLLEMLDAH

SMILES	Agonist Mode ERα Eff (%E2) (ERα)	transcriptional activity profile on ERα (ERα; HEK293T)	Emax (ERβ) [%]	transcriptional activity profile on ERβ (ERβ)	β/α [1]	inhibition at 10 µM [2] [%]	EC50 (ERα) [nM]	efficacy on ERα, times greater than that of estradiol (ERα; agonist mode) [times]	EC50 (ERβ) [nM]	ERα agonist potency, fold more potent than 2b (ERα; agonist mode, relative to 2b)	fold better binding to ERβ than 2a ([1]; relative to 2a) [fold]	EC50 (ERα; read-out: Agonist Mode ERα EC50, compound alone up to 10^−5 M, HEK293T) [nM]	toxicity to healthy VERO cells (VERO cells)	Agonist Mode ERβ Eff (%E2) (ERβ)	Antagonist Mode ERβ Eff (%E2) (ERβ)	fold increase in binding affinity for ERα over 2a [3]
Oc1ccc(-c2ccc(-c3ccc(O)cc3)[se]2)cc1 [Compound 2a, 2,5-Bis(4-hydroxyphenyl)selenophene]	16 ± 2	partial antagonist	11 ± 4	partial antagonist	4.70	0	–	–	–	–	–	–	–	–	–	–
Cc1cc(O)ccc1-c1ccc(-c2ccc(O)cc2C)[se]1 [Compound 2b, 2,5-Bis(4-hydroxy-2-methylphenyl)selenophene]	157 ± 12	superagonist	82 ± 7	agonist	1.98	3.4	1360	1.5	79	–	–	–	–	–	–	–
Cc1cc(-c2ccc(-c3ccc(O)c(C)c3)[se]2)ccc1O [Compound 2c, 2,5-Bis(4-hydroxy-3-methylphenyl)selenophene]	33 ± 6	inactive	24 ± 3	inactive	>94	9.3	–	–	–	–	–	–	–	–	–	–
Cc1cc(-c2ccc(-c3cc(C)c(O)c(C)c3)[se]2)cc(C)c1O [Compound 2d, 2,5-Bis(4-hydroxy-3,5-dimethylphenyl)selenophene]	12 ± 4	inactive	38 ± 6	inactive	>121	0	–	–	–	–	–	–	–	–	–	–
Cc1cc(O)cc(C)c1-c1ccc(-c2c(C)cc(O)cc2C)[se]1 [Compound 2e, 2,5-Bis(4-hydroxy-2,6-dimethylphenyl)selenophene]	−7 ± 3	–	60 ± 4	–	1.00	19.3	–	–	434	–	–	–	–	–	–	–
Oc1ccc(-c2ccc(-c3ccc(O)cc3F)[se]2)c(F)c1 [Compound 2f, 2,5-Bis(2-fluoro-4-hydroxyphenyl)selenophene]	68 ± 2	full ERα agonist	71 ± 1	–	4.11	10.5	230	–	170	about 6 fold	8	–	–	–	–	–
Oc1ccc(-c2ccc(-c3ccc(O)cc3Cl)[se]2)c(Cl)c1 [Compound 2g, 2,5-Bis(2-chloro-4-hydroxyphenyl)selenophene]	44 ± 13	–	14 ± 5	–	2.07	19.6	–	–	–	–	–	1280	–	–	–	–
Oc1ccc(-c2ccc(-c3ccc(O)c(Cl)c3)[se]2)cc1Cl [Compound 2h, 2,5-Bis(3-chloro-4-hydroxyphenyl)selenophene]	49 ± 3	partial agonist	22 ± 8	–	5.10	5.3	40	–	–	–	–	–	–	–	–	–
Oc1ccc(F)c(-c2ccc(-c3cc(O)ccc3F)[se]2)c1 [Compound 2i, 2,5-Bis(2-fluoro-5-hydroxyphenyl)selenophene]	25 ± 8	–	55 ± 5	partial agonist	0.90	17.9	–	–	130	–	–	–	–	–	–	–
Oc1cc(-c2ccc(-c3ccc(F)c(O)c3)[se]2)ccc1F [Compound 2j, 2,5-Bis(4-fluoro-5-hydroxyphenyl)selenophene]	25 ± 8	–	42 ± 10	partial agonist	3.37	4.4	–	–	150	–	–	–	–	–	–	–
CC/C(=C(\c1ccc(O)cc1)c1ccc(OCCN(C)C)cc1)c1ccccc1 [Compound 4OHT, 4-hydroxytamoxifen, reference compound]	–	–	–	–	–	81.7	–	–	–	–	–	–	considerable toxicity	−1 ± 1	−20 ± 2	–
Oc1ccc(-c2c[se]cc2-c2ccc(O)cc2)cc1 [Compound 4a, 3,4-Bis(4-hydroxyphenyl)selenophene]	7 ± 3	–	16 ± 7	antagonist	6.28	0	–	–	–	–	–	–	–	–	–	–
Cc1cc(O)ccc1-c1c[se]cc1-c1ccc(O)cc1C [Compound 4b, 3,4-Bis(4-hydroxy-2-methylphenyl)selenophene]	19 ± 4	–	62 ± 8	–	24.81	0	–	–	34	–	–	–	–	–	–	–
Cc1cc(-c2c[se]cc2-c2ccc(O)c(C)c2)ccc1O [Compound 4c, 3,4-Bis(4-hydroxy-3-methylphenyl)selenophene]	32 ± 8	–	54 ± 10	–	0.87	0	320	–	1150	–	–	–	–	–	–	–
Oc1ccc(-c2c[se]cc2-c2ccc(O)c(F)c2)cc1F [Compound 4d, 3,4-Bis(3-fluoro-4-hydroxyphenyl)selenophene]	21 ± 6	–	21 ± 3	–	2.67	0	–	–	–	–	–	–	–	–	–	–
Oc1ccc(-c2c[se]cc2-c2ccc(O)cc2F)c(F)c1 [Compound 4e, 3,4-Bis(2-fluoro-4-hydroxyphenyl)selenophene]	35 ± 5	–	17 ± 2	–	2.19	0	–	–	–	–	–	–	–	–	–	–
Oc1ccc(-c2cc(Br)c(-c3ccc(O)cc3)[se]2)cc1 [Compound 6a, 3-Bromo-2,5-bis(4-hydroxyphenyl)selenophene]	69 ± 11	full agonist	40 ± 5	partial agonist	2.32	0	15	–	13	–	–	–	–	–	–	8 fold and ~10 fold
Cc1cc(-c2cc(Br)c(-c3ccc(O)c(C)c3)[se]2)ccc1O [Compound 6c, 3-Bromo-2,5-bis(4-hydroxy-3-methylphenyl)selenophene]	−3 ± 1	–	46 ± 1	–	4.40	26.1	–	–	441	–	–	–	–	–	–	–
Cc1cc(-c2cc(Br)c(-c3cc(C)c(O)c(C)c3)[se]2)cc(C)c1O [Compound 6d, 3-Bromo-2,5-bis(4-hydroxy-3,5-dimethylphenyl)selenophene]	16 ± 4	–	15 ± 6	–	0.43	26.5	–	–	–	–	–	–	–	–	–	–
Oc1ccc(-c2cc(Br)c(-c3ccc(O)c(Cl)c3)[se]2)cc1Cl [Compound 6e, 3-Bromo-2,5-bis(3-chloro-4-hydroxyphenyl)selenophene]	−23 ± 3	–	27 ± 2	–	0.25	11.3	–	–	–	–	–	–	–	–	–	–
Oc1cc(-c2cc(Br)c(-c3ccc(F)c(O)c3)[se]2)ccc1F [Compound 6f, 3-Bromo-2,5-bis(4-fluoro-5-hydroxyphenyl)selenophene]	226 ± 28	superagonist	31 ± 7	–	0.28	0	120	2.2	300	–	–	–	–	–	–	–
Oc1ccc(-c2cc(Br)c(-c3ccc(O)cc3F)[se]2)c(F)c1 [Compound 6g, 3-Bromo-2,5-bis(2-fluoro-4-hydroxyphenyl)selenophene]	73 ± 9	–	50 ± 3	–	1.30	8.1	–	–	–	–	–	–	–	–	–	–
Oc1ccc(-c2cc(-c3ccc(O)cc3)c(-c3ccc(O)cc3)[se]2)cc1 [Compound 8a, 2,3,5-Tris(4-hydroxyphenyl)selenophene]	−4 ± 3	antagonist	12 ± 3	antagonist	1.15	29.6	–	–	–	–	–	–	–	–	–	–
Cc1cc(-c2cc(-c3ccc(O)c(C)c3)c(-c3ccc(O)c(C)c3)[se]2)ccc1O [Compound 8b, 2,3,5-Tris(4-hydroxy-3-methylphenyl)selenophene]	112 ± 29	superagonists	77 ± 8	–	9.92	16.6	320	–	33	–	–	–	–	–	–	–
Cc1cc(-c2cc(-c3cc(C)c(O)c(C)c3)c(-c3cc(C)c(O)c(C)c3)[se]2)cc(C)c1O [Compound 8c, 2,3,5-Tris(4-hydroxy-3,5-dimethylphenyl)selenophene]	74 ± 4	–	69 ± 5	–	0.55	75.3	270	–	17	–	–	–	nontoxic	–	–	–
